Results: PMC10101059, “Rational Design of Stapled Antimicrobial Peptides to Enhance Stability and In Vivo Potency against Polymicrobial Sepsis” (Microbiology Spectrum, 2023)
≈ marks a conversion by molar mass, not a printed value. Like-named read-outs stand apart in the source and are kept apart here. Bridge positions count the residues as written; N and C are the ends. Square brackets hold non-standard residues; d marks the D form. Peptide text beside a SMILES is read from it. R5 = C=CCCC[C@@](C)(N)C(=O)O

Assays:
Acinetobacter baumannii = experiment: microbe, parasite or virus in culture; assay type: cell-based; settings: for MBC: read-out: MBC; for MIC: read-out: MIC
Procedure, shortened: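 Broth microdilution per modified NCCLS protocol: 5 × 10^5 CFU/mL treated with peptide dilutions for 16-20 h at 37 ± 2°C. MIC was the lowest concentration with clear wells; MBC was the lowest concentration with no growth on MHA subculture. Variants used 50% human serum, added salts or 0.2% glucose, pH 4-12, or peptide pre-heated 1 h at 40-100°C.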

MDR A. baumannii 1019 = experiment: microbe, parasite or virus in culture; assay type: cell-based, Acinetobacter baumannii; settings: for TP4-3 and meropenem combined MIC: MIC of each agent in combination
Experimental: (§1) The FICI was measured using a standard checkerboard microdilution assay ([57]). Two-fold dilutions of antibiotics were made across the x axis, and two-fold peptide dilutions were made across the y axis. Next, bacteria were added at 5 × 10^5 CFU/well (A. baumannii), followed by incubation at 37 ± 2°C for 16 to 20 h. FIC indices were calculated according to the following equations: FICI = FIC1 + FIC2; FIC1 = (MIC12 combined)/MIC1; FIC2 = (MIC12 combined)/MIC2. The combined efficacy was estimated as follows: FICI ≤ 0.5, synergistic; 0.5 to 1, additive; 1 to 2, indifferent; ≥2, antagonistic.

MDR A. baumannii 1702 = experiment: microbe, parasite or virus in culture; assay type: cell-based, Acinetobacter baumannii; settings: for TP4-3 and meropenem combined MIC: MIC of each agent in combination
Experimental: as §1

MDR A. baumannii 2982 = experiment: microbe, parasite or virus in culture; assay type: cell-based, Acinetobacter baumannii; settings: for TP4-3 and meropenem combined MIC: MIC of each agent in combination
Experimental: as §1

MDR A. baumannii 1607 = experiment: microbe, parasite or virus in culture; assay type: cell-based, Acinetobacter baumannii; settings: for TP4-3 and meropenem combined MIC: MIC of each agent in combination
Experimental: as §1

MDR A. baumannii 2962 = experiment: microbe, parasite or virus in culture; assay type: cell-based, Acinetobacter baumannii; settings: for TP4-3 and meropenem combined MIC: MIC of each agent in combination
Experimental: as §1

MDR A. baumannii 921 = experiment: microbe, parasite or virus in culture; assay type: cell-based, Acinetobacter baumannii; settings: for TP4-3 and meropenem combined MIC: MIC of each agent in combination
Experimental: as §1

MDR A. baumannii 14B001 = experiment: microbe, parasite or virus in culture; assay type: cell-based, Acinetobacter baumannii; settings: for TP4-3 and meropenem combined MIC: MIC of each agent in combination
Experimental: as §1

NDM1 K. pneumoniae = experiment: microbe, parasite or virus in culture; assay type: cell-based, Klebsiella pneumoniae; settings: for TP4-3 and meropenem combined MIC: MIC of each agent in combination
[1] = test system: CLP-induced polymicrobial sepsis in C57BL/6 female mice; experiment: CLP-induced polymicrobial sepsis model; assay type: in vivo
Experimental: (i) CLP surgery. Cecal ligation and puncture surgery was performed to induce polymicrobial sepsis according to a previously described method ([37]). Female C57BL/6 mice at 6 to 8 weeks of age (weight = 18 to 22 g) were anesthetized by intraperitoneal administration of Zoletil (50 mg/kg). Then, a 1-cm incision was made at the abdomen to expose the cecum. The CLP procedure was performed with a 23-G needle. […] A sham group was subjected to abdomen incision without CLP and treated with saline by intraperitoneal injection. After the treatments, percent survival was used as a measure of test-candidate efficacy ([37]).
(ii) Estimation of bacterial load, cytokine expression, and toxicity profile after CLP and treatment. […] Blood samples were taken in collection tubes. Peritoneal fluid was collected in a sterilized 1.5-mL centrifuge tube. Organs, including the liver, lung, spleen, and kidney, were harvested, weighed, and placed in 1-mL sterile PBS for homogenization with a tissue lyzer (Tissuelyzer II, Qiagen, Dusseldorf, Germany). The homogenates, blood, and peritoneal fluid were diluted serially and plated on Mueller-Hinton broth agar plates. The plates were incubated at 37°C overnight. Each tissue was evaluated by measuring CFU/g ([37]).
To evaluate kidney and liver function, blood samples (n = 5 per group) were tested for ALT (GPT), AST (GOT), CRE, and BUN using a dry-chemistry analyzer as described above. Mouse serum was extracted to assess (n = 5 per group) expression of cytokines (Thermo Fisher Scientific, Waltham, MA) as a measure of inflammatory response ([37]).

E. aerogenes = experiment: microbe, parasite or virus in culture; assay type: cell-based, Enterobacter aerogenes; settings: for TP4-3 and meropenem combined MIC: MIC of each agent in combination
P. aeruginosae = experiment: microbe, parasite or virus in culture; assay type: cell-based, Pseudomonas aeruginosa; settings: for TP4-3 and meropenem combined MIC: MIC of each agent in combination
[2] = 24 h, ELISA, compared to saline-treated group
[3] = 72 h compared to 24 h after treatment
[4] = read-out: Single drug treatment MIC

## CC[C@H](C)[C@H](NC(=O)[C@@H](NC(=O)[C@@H](N)Cc1ccccc1)[C@@H](C)CC)C(=O)N[C@]1(C)CCCC=CCCC[C@](C)(C(=O)NCC(=O)N[C@@H](CC(C)C)C(=O)N[C@@H](Cc2ccccc2)C(=O)N[C@@H](CCCCN)C(=O)N[C@@H](CCCCN)C(=O)N[C@@H](CCCCN)C(=O)N[C@@H](C)C(=O)NCC(=O)N[C@@H](C)C(=O)N[C@]2(C)CCCC=CCCC[C@](C)(C(=O)N[C@H](C(=O)N[C@@H](CCCCN)C(=O)N[C@@H](CCCCN)C(=O)O)[C@@H](C)CC)NC(=O)[C@H](CCCCN)NC(=O)[C@H](CCCCN)NC(=O)[C@H](CCCCN)NC2=O)NC(=O)[C@H](CO)NC(=O)[C@H](CCCCN)NC(=O)[C@H](CCCCN)NC1=O [TP4-3] (H-FII[R5]KKS[R5]GLFKKKAGA[R5]KKK[R5]IKK-OH; staple 4-8, 18-22; N-terminus and C-terminus assumed)
Acinetobacter baumannii; 12 h pretreatment in 50% human serum
  reduction of activity: 2 fold
Acinetobacter baumannii; 24 h pre-incubation in 50% human serum
  reduction of activity: 4 fold
Acinetobacter baumannii; in pH 6
  reduction of activity (MBC): 4 fold
Acinetobacter baumannii; media supplemented with CaCl2
  lower bactericidal potency: ≤ 8 fold
Acinetobacter baumannii; media supplemented with MgCl2
  lower bactericidal potency: up to 4 fold
Acinetobacter baumannii; media supplemented with NaCl, KCl, or NH4Cl vs non-supplemented medium
  lowered bactericidal potency (MBC): up to 2 fold
Acinetobacter baumannii; pH 6
  MBC: 12.5 µM (≈ 36.1 µg/mL)
  MIC: 12.5 µM (≈ 36.1 µg/mL)
Acinetobacter baumannii; pH 7.4
  MBC: 3.13 µM (≈ 9.05 µg/mL)
  MIC: 3.13 µM (≈ 9.05 µg/mL)
Acinetobacter baumannii; pH 8
  MBC: 3.13 µM (≈ 9.05 µg/mL)
  MIC: 3.13 µM (≈ 9.05 µg/mL)
Acinetobacter baumannii; pH 10
  MBC: 3.13 µM (≈ 9.05 µg/mL)
  MIC: 0.78 µM (≈ 2.25 µg/mL)
MDR A. baumannii 1019; MDR 1019, read-out: Single drug treatment MIC
  MIC: 12.5 µM
MDR A. baumannii 1019; TP4-3 and D
  TP4-3 and meropenem combined MIC: 3.13 µM
MDR A. baumannii 1019; TP4-3 and M
  TP4-3 and meropenem combined MIC: 3.13 µM
MDR A. baumannii 1702; MDR 1702, read-out: Single drug treatment MIC
  MIC: 6.25 µM
MDR A. baumannii 1702; TP4-3 and D
  TP4-3 and meropenem combined MIC: 3.13 µM
MDR A. baumannii 1702; TP4-3 and M
  TP4-3 and meropenem combined MIC: 3.13 µM
MDR A. baumannii 2982; MDR 2982, read-out: Single drug treatment MIC
  MIC: 6.25 µM
MDR A. baumannii 2982; TP4-3 and D
  TP4-3 and meropenem combined MIC: 3.13 µM
MDR A. baumannii 2982; TP4-3 and M
  TP4-3 and meropenem combined MIC: 3.13 µM
MDR A. baumannii 1607; MDR 1607, read-out: Single drug treatment MIC
  MIC: 6.25 µM
MDR A. baumannii 1607; TP4-3 and D
  TP4-3 and meropenem combined MIC: 3.13 µM
MDR A. baumannii 1607; TP4-3 and M
  TP4-3 and meropenem combined MIC: 3.13 µM
MDR A. baumannii 2962; MDR 2962, read-out: Single drug treatment MIC
  MIC: 6.25 µM
MDR A. baumannii 2962; TP4-3 and D
  TP4-3 and meropenem combined MIC: 3.13 µM
MDR A. baumannii 2962; TP4-3 and M
  TP4-3 and meropenem combined MIC: 3.13 µM
MDR A. baumannii 921; MDR 921, read-out: Single drug treatment MIC
  MIC: 6.25 µM
MDR A. baumannii 921; TP4-3 and D
  TP4-3 and meropenem combined MIC: 3.13 µM
MDR A. baumannii 921; TP4-3 and M
  TP4-3 and meropenem combined MIC: 0.78 µM
MDR A. baumannii 14B001; MDR 14B001, read-out: Single drug treatment MIC
  MIC: 3.13 µM
MDR A. baumannii 14B001; TP4-3 and D
  TP4-3 and meropenem combined MIC: 3.13 µM
MDR A. baumannii 14B001; TP4-3 and M
  TP4-3 and meropenem combined MIC: 0.09 µM
NDM1 K. pneumoniae; TP4-3 and D
  TP4-3 and meropenem combined MIC: 6.25 µM
NDM1 K. pneumoniae; TP4-3 and M
  TP4-3 and meropenem combined MIC: 6.25 µM
NDM1 K. pneumoniae; NDM1, read-out: Single drug treatment MIC
  MIC: 25 µM (≈ 72.3 µg/mL)
[1]; [2]
  serum IL-6 level: lower levels
  serum IL-10 level: higher level
  serum IL-12 level: no difference
  serum IL-18 level: lower levels
  serum MCP-1 level: lower levels
  serum TNF-α level: lower levels
[1]; 24 h after CLP
  kidney (BUN, CRE) and liver function (GOT, GPT): significantly improved
[1]; [3]
  bacterial burden in peritoneal lavage fluid: no significant difference
  decrease of bacterial burden, blood: 54%
  decrease of bacterial burden, kidney: 51%
  decrease of bacterial burden, liver: 61%
  decrease of bacterial burden, lung: 51%
  decrease of bacterial burden, spleen: 55%
[1]; 72 h post-treatment, compared to CLP + saline
  bacterial burdens in the blood, lung, and liver: lower bacterial burdens
[1]; 7 days post-operation, i.p. 30 min after CLP, TP4-3 9 mg/kg, meropenem 10 mg/kg, combination 9 mg/kg TP4-3 and 5 mg/kg meropenem, CLP + saline 12.5%
  survival: 87.5%
E. aerogenes; TP4-3 and D
  TP4-3 and meropenem combined MIC: 3.13 µM
E. aerogenes; TP4-3 and M
  TP4-3 and meropenem combined MIC: 0.78 µM
E. aerogenes; [4]
  MIC: 25 µM (≈ 72.3 µg/mL)
P. aeruginosae; TP4-3 and D
  TP4-3 and meropenem combined MIC: 6.25 µM
P. aeruginosae; TP4-3 and M
  TP4-3 and meropenem combined MIC: 0.78 µM
P. aeruginosae; [4]
  MIC: 25 µM (≈ 72.3 µg/mL)
